The subject of one experiment is A549. Description: In vitro cytotoxic activity against human lung carcinoma A549 cell line. The format is functional, cell-based.
Another experiment relates to SK-MEL-2. Briefly: In vitro cytotoxic activity against human melanoma SK-MEL-2 cell line. The format is functional, cell-based.

With `O=C(Nc1ccc(Cl)cc1)NS(=O)(=O)c1ccc2c(c1)CCC2` [SULOFENUR], the IC50 (usually the concentration at which inhibition is half-maximal) stood at 11.3 µM in the experiment with A549 and 12.9 µM in the experiment with SK-MEL-2. As to `Cc1ccc(S(=O)(=O)N2CC(c3ccccc3)NC2=O)cc1` (stereo not given), the IC50 with A549 worked out at 12.5 µM; in the experiment on SK-MEL-2, 2.53 µM. Consider `Cc1ccc(S(=O)(=O)N2C(=O)NCC2c2ccccc2)cc1` (stereo not given), for which the IC50 in the experiment on A549 and in the experiment on SK-MEL-2 was > 316 µM throughout. Regarding `O=C1NCC(c2ccc(Br)cc2)N1S(=O)(=O)c1ccc(Cl)cc1` (stereo not given), the results for the IC50 with A549 and in the experiment with SK-MEL-2 were 84 µM and 106 µM, respectively. As for `O=C1NC(c2ccc(Br)cc2)CN1S(=O)(=O)c1ccc2c(c1)CCC2` (stereo not given), the IC50 in the experiment with A549 was determined as 33.9 µM; in the experiment on SK-MEL-2, 32.6 µM. In the case of `Cc1ccc(C2CN(S(=O)(=O)c3ccc(Cl)cc3)C(=O)N2)cc1` (stereo not given), the IC50 in the experiment with A549 was 158 µM; with SK-MEL-2, 123 µM. Turning to `Cc1ccc(C2CNC(=O)N2S(=O)(=O)c2ccc(Cl)cc2)cc1` (stereo not given), the IC50 in the experiment on A549 was 266 µM; in the experiment with SK-MEL-2, 255 µM. The like results for `O=C1NC(c2ccccc2)CN1S(=O)(=O)c1ccccc1` (stereo not given) were, in that order, 145 µM and 116 µM. Compound `O=C1NC(c2ccccc2)CN1S(=O)(=O)c1ccc2c(c1)CCC2` (stereo not given) showed an IC50 in the experiment on A549 of 0.91 µM. That is a sub-micromolar value. `O=C1NC(c2ccccc2)CN1S(=O)(=O)c1ccc(Cl)cc1` (stereo not given): the IC50 came out at 9.47 µM with A549 and 1.43 µM in the experiment on SK-MEL-2.

Regarding `Cc1ccc(C2CN(S(=O)(=O)c3ccc(C)cc3)C(=O)N2)cc1` (stereo not given), the half-maximal inhibitory concentration (IC50) in the experiment with A549 and in the experiment on SK-MEL-2 was > 303 µM each time. As for `O=C1NCC(c2ccc(Cl)cc2)N1S(=O)(=O)c1ccc2c(c1)CCC2` (stereo not given), the IC50 in the experiment on A549 is > 265 µM; with SK-MEL-2, 161 µM. `Cc1ccc(C2CN(S(=O)(=O)c3ccccc3)C(=O)N2)cc1` (stereo not given): the IC50 in the experiment with A549 and in the experiment on SK-MEL-2 was > 316 µM throughout. As for `O=C1NC(c2ccc(Br)cc2)CN1S(=O)(=O)c1ccc(Cl)cc1` (stereo not given), the results for the IC50 with A549 and with SK-MEL-2 were 161 µM and 111 µM, respectively. With `O=C1NCC(c2ccc(Br)cc2)N1S(=O)(=O)c1ccc2c(c1)CCC2` (stereo not given), the IC50 in the experiment with A549 is > 237 µM; with SK-MEL-2, 119 µM. For the compound `O=C1NC(c2ccc(Cl)cc2)CN1S(=O)(=O)c1ccc2c(c1)CCC2` (stereo not given), the IC50 in the experiment on A549 worked out at 86.3 µM; in the experiment on SK-MEL-2, 64.3 µM. The like results for `Cc1ccc(S(=O)(=O)N2C(=O)NCC2c2ccc(Br)cc2)cc1` (stereo not given) were, in that order, 67 µM and 80 µM. As to `Cc1ccc(C2CNC(=O)N2S(=O)(=O)c2ccc3c(c2)CCC3)cc1` (stereo not given), the IC50 in the experiment on A549 turned out to be 90.3 µM; with SK-MEL-2, 88.6 µM. Consider `Cc1ccc(S(=O)(=O)N2CC(c3ccc(Br)cc3)NC2=O)cc1` (stereo not given), for which the IC50 in the experiment on A549 and in the experiment with SK-MEL-2 was > 253 µM in each case.

Regarding `Cc1ccc(C2CNC(=O)N2S(=O)(=O)c2ccc(C)cc2)cc1` (stereo not given), the IC50 in the experiment with A549 is > 303 µM; in the experiment on SK-MEL-2 it was 234 µM. For `O=C1NCC(c2ccccc2)N1S(=O)(=O)c1ccc2c(c1)CCC2` (stereo not given), the results for the IC50 in the experiment on A549 and in the experiment on SK-MEL-2 were 58.5 µM and 39 µM, respectively. For the compound `Cc1ccc(C2CNC(=O)N2S(=O)(=O)c2ccccc2)cc1` (stereo not given), the results for the IC50 with A549 and in the experiment on SK-MEL-2 were 157 µM and 144 µM, respectively. Taken in the same sequence, the figures for `Cc1ccc(C2CN(S(=O)(=O)c3ccc4c(c3)CCC4)C(=O)N2)cc1` (stereo not given) were 99.2 µM and 72.5 µM.

Values taken from ChEMBL document CHEMBL1159151, “Synthesis and evaluation of cytotoxic activity of novel arylsulfonylimidazolidinones” (Bioorg Med Chem Lett, 1996).
